# Laboratory results as given in patent publication US11484557B2, “Human-derived Lactobacillus fermentum MG4231 or Lactobacillus fermentum MG4244 strain having anti-obesity activity, and composition comprising same” (MEDIOGEN CO., LTD., priority 2018, dated 2022).
# System: 3T3-L1 preadipocytes
# Experiment: Inhibition of preadipocyte differentiation, Oil Red O lipid accumulation
# Type: cell-based
# Details: positive control, 100 μM baicalin
# Experimental: In order to select a strain having excellent obesity prevention and treatment effects among the strains obtained in the Example 1, an experiment was conducted to identify the ability thereof to inhibit differentiation of preadipocytes into adipocytes. To induce the differentiation of 3T3-L1 preadipocytes, the preadipocytes were dispensed into each 96-well plate at 1.25×10^5 cells/well. After 2 days, the medium was changed so that the cells were completely fused on the 4th day. MDI (0.5 mM 3-isobutyl-1-methylxanthine), 1 μM dexamethasone and 1 μg/mL of insulin solution added to 10% FBS DMEM medium. Subsequently, in the experimental group, the culture supernatant of the strain obtained in Example 1 was added to the medium at a concentration of 1,000 μg/mL. […] Adipocyte differentiation was completed after 6 days, and the amount of lipid accumulated in the cell was measured using Oil Red 0 (Sigma, USA), which reacts specifically with the lipid drop generated in the cell. […] For quantification, distilled water was removed, isopropyl alcohol was added to a completely dry well, and then, absorbance was measured at 520 nm. Then, a degree of inhibition of adipocyte differentiation ability was analyzed by comparing the produced lipid drop content with that of the MDI treatment group based on the measured absorbance.
smiles,measurement,value
O=C(O)[C@H]1O[C@@H](Oc2cc3oc(-c4ccccc4)cc(=O)c3c(O)c2O)[C@H](O)[C@@H](O)[C@@H]1O [baicalin],relative lipid content,81.40%
